Data as given in patent US8163924B2, “Process for preparing a leukotriene antagonist and an intermediate thereof” (Moehs Ibérica, S.L., priority 2007, dated 2012).
Where a name gives a salt, the structure may show the parent alone.

Test: Solubility of dicyclohexylamine salts: amounts of solvents needed to dissolve each compound at reflux
Assay type: physicochemical
Details: amounts approximate, same quantity of each compound
From the text: In particular, the amounts of solvents needed to dissolve each compound at reflux are provided.
The amounts of solvents needed to dissolve the salts are approximate.

Structure (SMILES) | amount of solvent needed to dissolve the compound at reflux (acetone) [volumes acetone] | amount of solvent needed to dissolve the compound at reflux (isopropyl acetate) [volumes isopropyl acetate]
COC(=O)c1ccccc1CC[C@@H](SCC1(CC(=O)O)CC1)c1cccc(/C=C/c2ccc3ccc(Cl)cc3n2)c1 [R = —CO2CH3] | 50 | 20
CC(=O)c1ccccc1CC[C@@H](SCC1(CC(=O)O)CC1)c1cccc(/C=C/c2ccc3ccc(Cl)cc3n2)c1 [IIa, (R)-(E)-1-(((1-(3-(2-(7-chloro-2-quinolinyl)ethenyl)phenyl)-3-(2-acetylphenyl)propyl)thio)methyl)cyclopropane acetic acid dicyclohexylamine salt] | 100 | 45
